Data: US8372967B2, “Compounds and methods for modulating expression of GCCR” (Isis Pharmaceuticals, Inc., priority 2006, dated 2013)
Strand notation (5' to 3'): a small letter for the sugar, then the base; units joined by * are phosphorothioate-linked, units joined directly phosphodiester-linked; [ ] holds rarer units or linkages, { } end groups; capitals alone tell only the bases. e = 2'-O-(2-methoxyethyl) (MOE); [5mC] = 5-methylcytosine; d = 2'-deoxy (DNA)

Tests used:
[1] = test system: PTP1B mRNA; experiment: Dose response for human PTP1B in HuVEC cells, PPS 198 and PPS 3000 (Tables 86, 87); type: cell-based
Procedure: Human vascular endothelial (HuVEC) cells were plated at a density of 5000 cells per well and treated as described herein with nM concentrations of short antisense compound as indicated in Table 86. After the treatment period, RNA was isolated from the cells and PTP1B mRNA levels were measured by quantitative real-time PCR, as described herein. PTP1B mRNA levels were adjusted according to total RNA content as measured by RIBOGREEN®. Two different human PTP1B primer probe sets were used to measure mRNA levels. Results with Primer Probe Set (PPS) 198 are shown in Table 86, and results with Primer Probe Set (PPS) 3000 are shown in Table 87. Results are presented as percent inhibition of PTP1B mRNA expression relative to untreated control cells.

[2] = test system: PCSK9 mRNA; type: cell-based, human; settings: Hep3B cells, 100 nM, relative to untreated control cells; for % Inhib: 0 = no reduction observed
Procedure: (§1) When cells reached appropriate confluency, they were treated with oligonucleotide using LIPOFECTIN® as described. […] Cells were treated and data were obtained in duplicate or triplicate. […] Cells were harvested 16-24 hours after oligonucleotide treatment.
Prior to quantitative PCR analysis, primer-probe sets specific to the target gene being measured were evaluated for their ability to be “multiplexed” with a GAPDH amplification reaction. After isolation the RNA is subjected to sequential reverse transcriptase (RT) reaction and real-time PCR, both of which are performed in the same well. RT and PCR reagents were obtained from Invitrogen Life Technologies (Carlsbad, Calif.). […] The RT reaction was carried out by incubation for 30 minutes at 48° C. Following a 10 minute incubation at 95° C. to activate the PLATIN 9M® Taq, 40 cycles of a two-step PCR protocol were carried out: 95° C. for 15 seconds (denaturation) followed by 60° C. for 1.5 minutes (annealing/extension).
170 μL of RiboGreen® working reagent (RiboGreen® reagent diluted 1:350 in 10 mM Tris-HCl, 1 mM EDTA, pH 7.5) was pipetted into a 96-well plate containing 30 μL purified cellular RNA. The plate was read in a CytoFluor® 4000 (PE Applied Biosystems) with excitation at 485 nm and emission at 530 nm.
Short antisense compounds targeted to a PCSK9 nucleic acid were tested for their effects on PCSK9 mRNA in vitro. The Isis No, gapmer motif and SEQ ID NO of each short antisense compound are shown again in Table 75. Cultured Hep3B cells were treated with 100 nM of short antisense compound. 5-10-5 MOE gapmers targeted to a PCSK9 nucleic acid were used as positive controls. After the treatment period, RNA was isolated from the cells and PCSK9 mRNA levels were measured by quantitative real-time PCR, as described herein. PCSK9 mRNA levels were adjusted according to total RNA content as measured by RIBOGREEN®. Results are presented in Table 75 as percent inhibition of PCSK9 (% Inhib), relative to untreated control cells.

[3] = test system: PCSK9 mRNA; experiment: Dose-dependent antisense inhibition of PCSK9 in Hep3B cells, EC50 (Table 76); type: cell-based, human
Procedure: as §1
Short antisense compounds targeted to a PCSK9 nucleic acid were tested in a dose response experiment Hep3B cells. After the treatment period, RNA was isolated from the cells and PCSK9 mRNA levels were measured by quantitative real-time PCR, as described herein. PCSK9 mRNA levels were normalized to cyclophilin mRNA levels, as measured by real-time PCR using a cyclophilin-specific primer probe set. Results are presented as percent inhibition of PCSK9, relative to untreated control cells. […] As illustrated in the following table, PCSK9 mRNA levels were reduced in a dose-dependent manner.

[4] = Triglyceride, cholesterol and glucose levels, pre-bleed and post-bleed, GCGR study (Table 34); type: in vivo, mouse; settings: C57/BL6 mice, 48 hours after single i.p. dose
Procedure: Eight-week old male C57/BL6 mice (Jackson Laboratory, Bar Harbor, Me.) were administered a single dose of GCGR oligonucleotide by intraperitoneal injection at a concentration of […]. Each dose group consisted of four animals. Shown in Table 31 are the sequences, motifs and conjugates of the GCGR antisense compounds used in this study. Bolded residues indicate 2′-O-methoxyethyl (2′-MOE) moieties. All compounds comprise phosphorothioate internucleoside linkages throughout and each cytosine is replaced with 5-methylcytosine. ISIS 386626, ISIS 386627 and ISIS 386628 further comprise a C16 conjugate group attached to the 2′-O position of the sugar via a diamide linkage (2′-OCH2C(═O)N(H)(CH2)4N(H)C(═O)—(CH2)15CH3). GCGR antisense compounds target published GCGR sequences, including Genbank® Accession No. BC031885.1 (SEQ ID NO: 7).
Mice were sacrificed 48 hours following injection to determine serum transaminase levels (Table 32); liver, white adipose tissue (WAT), spleen and kidney weight (Table 33); cholesterol, triglyceride and glucose levels (Table 34); GCGR mRNA levels (Tables 35-41); and full-length and total oligonucleotide concentration in liver and kidney (Table 42). Endpoints were assessed using methods described herein and well known to those of ordinary skill in the art. Data is included from a pre-treatment bleed (Pre-Bleed) and post-treatment bleed (Post-Bleed).

Row | Substance | % Inhibition ([1]; PPS 198, 1.11 nM) | % Inhibition ([1]; PPS 198, 3.33 nM) | % Inhibition ([1]; PPS 198, 10.0 nM) | % Inhibition ([1]; PPS 198, 30.0 nM) | % Inhibition ([1]; PPS 3000, 1.11 nM) | % Inhibition ([1]; PPS 3000, 3.33 nM) | % Inhibition ([1]; PPS 3000, 10.0 nM) | % Inhibition ([1]; PPS 3000, 30.0 nM) | % Inhibition Range [2] | % Inhib [2] | % Inhibition ([3]; 5 nM) | % Inhibition ([3]; 10 nM) | % Inhibition ([3]; 20 nM) | % Inhibition ([3]; 40 nM) | % Inhibition ([3]; 80 nM) | % Inhibition ([3]; 160 nM) | Glucose levels (post-bleed) [4]
1 | 398173 (e[5mC]*dA*dG*d[5mC]*d[5mC]*dT*dG*dG*dG*d[5mC]*dA*e[5mC]) [compound 398173] | 0% | 4% | 80% | 97% | 0% | 18% | 80% | 90% |  |  |  |  |  |  |  |  | 
2 | 399096 (eT*eG*d[5mC]*dT*d[5mC]*dG*dA*dA*d[5mC]*dT*d[5mC]*d[5mC]*eT*eT; antisense) [compound 399096] | 3% | 30% | 78% | 96% | 0% | 23% | 75% | 94% |  |  |  |  |  |  |  |  | 
3 | 399102 (eG*eA*dA*dG*dT*d[5mC]*dA*d[5mC]*dT*dG*dG*d[5mC]*eT*eT; antisense) [compound 399102] | 0% | 15% | 62% | 88% | 0% | 9% | 60% | 87% |  |  |  |  |  |  |  |  | 
4 | 399113 (eG*eT*dT*dA*dG*dG*d[5mC]*dA*dA*dA*dG*dG*eG*e[5mC]; antisense) [compound 399113] | 0% | 31% | 72% | 90% | 0% | 9% | 65% | 90% |  |  |  |  |  |  |  |  | 
5 | 399132 (eG*eG*dG*d[5mC]*dT*dG*dA*dG*dT*dG*dA*d[5mC]*e[5mC]*e[5mC]; antisense) [compound 399132] | 0% | 32% | 75% | 95% | 0% | 26% | 76% | 91% |  |  |  |  |  |  |  |  | 
6 | 399173 (eA*eT*dG*d[5mC]*dT*dA*dG*dT*dG*d[5mC]*dA*d[5mC]*eT*eA; antisense) [compound 399173] | 0% | 24% | 63% | 89% | 0% | 11% | 59% | 92% |  |  |  |  |  |  |  |  | 
7 | 399208 (eA*eG*d[5mC]*dT*d[5mC]*dG*d[5mC]*dT*dA*d[5mC]*d[5mC]*dT*e[5mC]*eT; antisense) [compound 399208] | 0% | 37% | 86% | 93% | 0% | 47% | 85% | 96% |  |  |  |  |  |  |  |  | 
8 | 399276 (eG*eA*dG*dG*dT*dA*dT*d[5mC]*d[5mC]*d[5mC]*dA*dT*e[5mC]*eT; antisense) [compound 399276] | 0% | 8% | 61% | 89% | 0% | 14% | 64% | 86% |  |  |  |  |  |  |  |  | 
9 | 399315 (antisense eG*eG*d[5mC]*dA*dA*d[5mC]*dT*dT*d[5mC]*dA*dA*d[5mC]*e[5mC]*eT) [compound 399315] | 0% | 20% | 68% | 88% | 0% | 25% | 71% | 93% |  |  |  |  |  |  |  |  | 
10 | 400307 (antisense e[5mC]*eG*dG*d[5mC]*d[5mC]*dG*d[5mC]*dT*dG*dA*d[5mC]*d[5mC]*eA*e[5mC]) [compound 400307] |  |  |  |  |  |  |  |  | 70-80% | 76% | 35% | 39% | 45% | 56% | 92% | 93% | 
11 | 400308 (antisense e[5mC]*e[5mC]*dG*dG*d[5mC]*d[5mC]*dG*d[5mC]*dT*dG*dA*d[5mC]*e[5mC]*eA) [compound 400308] |  |  |  |  |  |  |  |  | 50-60% | 55% | 31% | 10% | 26% | 40% | 77% | 86% | 
12 | 400309 (antisense e[5mC]*e[5mC]*d[5mC]*dG*dG*d[5mC]*d[5mC]*dG*d[5mC]*dT*dG*dA*e[5mC]*e[5mC]) [compound 400309] |  |  |  |  |  |  |  |  | 40-50% | 44% | 49% | 23% | 38% | 12% | 72% | 78% | 
13 | ISIS 386628: GCGR short antisense compound with C16 conjugate group at 2′-O via diamide linkage (TGTCTTGCTGCTTT; chemistry not fully specified) |  |  |  |  |  |  |  |  |  |  |  |  |  |  |  |  | decrease in post-bleed glucose levels
